Measurements from US20020123503A1, “Cabergoline pharmaceutical compositions and methods of use thereof” (priority 2000, published 2002).

Test: Chemical stability of cabergoline and its tablets
Format: physicochemical
Settings: normal wet granulation techniques

C=CCN1C[C@H](C(=O)N(CCCN(C)C)C(=O)NCC)C[C@@H]2c3cccc4[nH]cc(c34)C[C@H]21 [cabergoline, 1((6-allylergolin-8.beta,-yl)-carbony.)-1-(3-(dimethylamino)propyl)-3ethylurea]
degradation of the active ingredient: did degrade
